Source: ChEMBL document CHEMBL1158480, “In silico prediction of volume of distribution in human using linear and nonlinear models on a 669 compound data set” (J Med Chem, 2009)

Experiments:
[1] = Volume of distribution at steady state in human at 1 mg/kg; format: ADME, organism-based; design: dose 1 mg/kg; details: in vivo, read-out: Vdss
[2] = Volume of distribution at steady state in human; details: in vivo
[3] = Clearance in human at 200 ug; format: ADME, organism-based; details: in vivo
[4] = Volume of distribution at steady state in human at 50 mg, iv; format: ADME, organism-based; details: in vivo, read-out: Vdss
[5] = Volume of distribution at steady state in human at 25 mg, iv; format: ADME, organism-based; details: in vivo, read-out: Vdss
[6] = Volume of distribution at steady state in human at 1 mg/kg, iv administered 20 mins infusion; format: ADME, organism-based; design: dose 1 mg/kg, route intravenous; details: in vivo, read-out: Vdss
[7] = Volume of distribution at steady state in human at 150 mg, iv; format: ADME, organism-based; details: in vivo, read-out: Vdss
[8] = Volume of distribution at steady state in human administered three sequential 4-h infusion at 1, 5 and 15 mg/hr; format: ADME, organism-based; details: in vivo, iv, read-out: Vdss
[9] = Clearance in human at 2 mg, iv; format: ADME, organism-based; details: in vivo
[10] = Mean residence time in human at 2 mg, iv; format: ADME, organism-based; details: in vivo
[11] = Half life in human at 2 mg, iv; format: ADME, organism-based; details: in vivo
[12] = Volume of distribution at steady state in human administered 1 to 12 g doses with 2 to 3.5 hrs iv infusion; format: ADME, organism-based; details: in vivo, read-out: Vdss
[13] = Volume of distribution at steady state in human at 130 mg administered 90 mins infusion; format: ADME, organism-based; details: in vivo, iv, read-out: Vdss
[14] = Volume of distribution at steady state in human at 2.5 mg, iv administered as bolus dose; format: ADME, organism-based; details: in vivo, read-out: Vdss
[15] = Volume of distribution at steady state in human dosed 1 hr iv infusion; details: in vivo
[16] = Volume of distribution at steady state in human at 0.1 mg/kg administered 15 mins infusion; format: ADME, organism-based; design: dose 0.1 mg/kg; details: in vivo, iv, read-out: Vdss
[17] = Total clearance in human at 0.1 mg/kg administered 15 mins infusion; format: ADME, organism-based; design: dose 0.1 mg/kg; details: in vivo, iv
[18] = Volume of distribution in human at 100 mg administered 30 mins infusion; format: ADME, organism-based; details: in vivo, iv
[19] = Volume of distribution at steady state in human at 0.2 mg, iv; format: ADME, organism-based; details: in vivo, read-out: Vdss
[20] = Clearance in human administered three way cross over study in 11, 10 and 12 healthy subjects at 5, 10, 15 mg dose respectively as 1 hr infusion; format: ADME, organism-based; details: in vivo, intravenous
[21] = Mean residence time in human administered three way cross over study in 11, 10 and 12 healthy subjects at 5, 10, 15 mg dose respectively as 1 hr infusion; format: ADME, organism-based; details: in vivo, intravenous
[22] = Half life in human administered three way cross over study in 11, 10 and 12 healthy subjects at 5, 10, 15 mg dose respectively as 1 hr infusion; format: ADME, organism-based; details: in vivo, intravenous
[23] = Clearance in human given 31 administration across 6 doses 2.5 to 25 mg administered 30 mins infusion each dose separated by 13 days; format: ADME, organism-based; details: in vivo, iv
[24] = Mean residence time in human given 31 administration across 6 doses 2.5 to 25 mg administered 30 mins infusion each dose separated by 13 days; format: ADME, organism-based; details: in vivo, iv
[25] = Half life in human given 31 administration across 6 doses 2.5 to 25 mg administered 30 mins infusion each dose separated by 13 days; format: ADME, organism-based; details: in vivo, iv
[26] = Volume of distribution at steady state in human at 2.8 mg, iv; format: ADME, organism-based; details: in vivo, read-out: Vdss
[27] = Volume of distribution at steady state in human at 0.149 mg/kg, iv; format: ADME, organism-based; design: dose 0.149 mg/kg, route intravenous; details: in vivo, read-out: Vdss
[28] = Volume of distribution at steady state in human at 100 mg, iv; format: ADME, organism-based; details: in vivo, read-out: Vdss
[29] = Volume of distribution at steady state in human at 5 mg, iv; format: ADME, organism-based; details: in vivo, read-out: Vdss
[30] = Volume of distribution at steady state in human at 10 mg, iv; format: ADME, organism-based; details: in vivo, read-out: Vdss
[31] = Volume of distribution at steady state in human at 15 ng/kg/min, iv administered 150 mins infusion; format: ADME, organism-based; details: in vivo, read-out: Vdss

CC(C)(N)CC(=O)N[C@@H]1CCc2ccccc2N(Cc2ccc(-c3ccccc3-c3nnn[nH]3)cc2)C1=O
Vd [1]: 0.2 L/kg

CC(=O)Nc1ccc(C2=NNC(=O)C[C@H]2C)cc1
Vd [2]: 2.38 L/kg | clearance [3]: 33.3 mL/min

COC(=O)c1cnc2n1CCc1ccccc1C2=C1CCN(CCc2ccc(OCc3ccc4ccccc4n3)cc2)CC1
Vd [4]: 6.03 L/kg

CC(=O)CC(c1ccc([N+](=O)[O-])cc1)c1c(O)c2ccccc2oc1=O (stereo not drawn) [ACENOCOUMAROL]
Vd [5]: 0.24 L/kg

C[C@@H]1[C@H](O)[C@@H](C)/C=C/C=C/C=C/C=C/C=C/C=C/C=C/[C@H](O[C@@H]2O[C@H](C)[C@@H](O)[C@H](N)[C@@H]2O)C[C@@H]2O[C@](O)(C[C@@H](O)C[C@@H](O)[C@H](O)CC[C@@H](O)C[C@@H](O)CC(=O)O[C@H]1C)C[C@H](O)[C@H]2C(=O)O [AMPHOTERICIN B]
Vd [2]: 0.62 L/kg

CC(=O)N(CCC(CCN1CCCCC1)(C(N)=O)c1ccccc1Cl)C(C)C (stereo not drawn) [BIDISOMIDE]
Vd [6]: 2.6 L/kg

COCCOC[C@H](CC1(C(=O)N[C@H]2CC[C@@H](C(=O)O)CC2)CCCC1)C(=O)O [CANDOXATRILAT]
Vd [7]: 0.25 L/kg

COc1ccccc1Oc1c(NS(=O)(=O)c2ccc(C)cn2)nc(-c2ccnc(-c3nnn[nH]3)c2)nc1OCCO [CLAZOSENTAN]
Vd [8]: 0.23 L/kg

CCc1nc2c(N)nc3ccccc3c2n1CCCCNS(C)(=O)=O [CPG-52852]
clearance [9]: 7.7 mL/min/kg | MRT [10]: 4.7 h | half-life [11]: 7.1 h

Nc1ccn([C@@H]2O[C@H](CO)[C@@H](O)[C@@H]2O)c(=O)n1 [CYTARABINE]
Vd [12]: 0.67 L/kg

O=C(O)c1ccc(-n2nc(-c3ccccc3O)nc2-c2ccccc2O)cc1 [DEFERASIROX]
Vd [13]: 0.2 L/kg

OCCN1CCN(CCCN2c3ccccc3Sc3ccc(C(F)(F)F)cc32)CC1 [FLUPHENAZINE]
Vd [14]: 2.9 L/kg

C[C@]12CC[C@@H]3c4ccc(O)cc4C[C@@H](CCCCCCCCC[S+]([O-])CCCC(F)(F)C(F)(F)F)[C@H]3[C@@H]1CC[C@@H]2O (stereo partly drawn) [FULVESTRANT]
Vd at 1 h [15]: 4.15 L/kg

Cc1nccn1CCC(C(N)=O)(c1ccccc1)c1ccccc1 [IMIDAFENACIN]
Vd [16]: 1.51 L/kg | clearance [17]: 492 mL/min

CC1(C)[C@@H](O[C@H]2O[C@H](C(=O)O)[C@@H](O)[C@H](O)[C@H]2O[C@H]2O[C@@H](C(=O)O)[C@H](O)[C@@H](O)[C@@H]2O)CC[C@]2(C)[C@H]3C(=O)C=C4[C@@H]5C[C@@](C)(C(=O)O)CC[C@]5(C)CC[C@@]4(C)[C@]3(C)CC[C@@H]12 [ISOGLYCIRRHIZINATE]
Vd [18]: 0.05 L/kg

C[C@@H]1CN([C@H]2CC[C@](C#N)(c3ccc(F)cc3)CC2)CC[C@]1(C(=O)O)c1ccccc1 [LEVOCABASTINE]
Vd [19]: 1.17 L/kg

CN(c1nc2ccccc2s1)C1CCN(C[C@H](O)COc2ccc(F)c(F)c2)CC1 [LUBELUZOLE]
clearance [20]: 1.8 mL/min/kg | MRT [21]: 28.7 h | half-life [22]: 23.5 h | clearance [23]: 1.54 mL/min/kg | MRT [24]: 23.3 h | half-life [25]: 19.8 h

CC(C)Oc1ccccc1N1CCN(Cc2cccc(C(=O)N3CCCCC3)c2)CC1 [MAZAPERTINE]
Vd [26]: 1.54 L/kg

CO[C@H]1C[C@H](O[C@H]2[C@H](C)[C@@H](O[C@@H]3O[C@H](C)C[C@H](N(C)C)[C@H]3O)[C@@H](C)C[C@@]3(CO3)C(=O)[C@H](C)[C@@H](O)[C@@H](C)[C@@H](C)OC(=O)[C@@H]2C)O[C@@H](C)[C@@H]1O [OLEANDOMYCIN]
Vd [2]: 0.77 L/kg

Cc1nc(=O)c(C#N)c(NCc2cccnc2)[nH]1 [PELRINONE]
Vd [27]: 0.39 L/kg

O=C(O)CCCCO/N=C(/c1cccnc1)c1cccc(C(F)(F)F)c1 [RIDOGREL]
Vd [28]: 0.43 L/kg

Cc1nc2sccn2c(=O)c1CCN1CCC(=C(c2ccc(F)cc2)c2ccc(F)cc2)CC1 [RITANSERIN]
Vd [29]: 1.41 L/kg

CN(c1nc2ccccc2s1)C1CCN(CC(O)COc2ccc(F)cc2)CC1 (stereo not drawn) [SABELUZOLE]
Vd [30]: 5.5 L/kg

CCCCC[C@H](O)CC[C@@H]1[C@H]2Cc3cccc(OCC(=O)O)c3C[C@H]2C[C@H]1O [TREPROSTINIL]
Vd [31]: 0.23 L/kg
